Experimental data as given in the supplement of paper PMC10307832.

Assays:
Test in all cases: relative viability (nuclei count vs DMSO), 5 days (fraction); higher = more cells survive
[1] = compound: CN(C/C=C/C1=CC=C(C=C1)Cl)CC2=CC=CC=C2N(CCO)S(=O)(=O)C3=CC=C(C=C3)OC [KN-93]
Procedure, shortened: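 Lung cancer cell lines in 1536-well plates were kept overnight at 37 °C, then pinned with five library-drug doses (not always all listed) spaced by √10 on vehicle-anchored plates. After 5 days without medium change, cells were fixed, permeabilised and Hoechst-stained in one step, imaged at 4×, and nuclei were counted with MetaXpress. Viability is treated-well nuclei divided by vehicle-well nuclei, taken as the median over plates. Plates passed only with control CV below 25% and at least one doubling.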

[2] = compound: CN(C/C=C/C1=CC=C(C=C1)Cl)CC2=CC=CC=C2N(CCO)S(=O)(=O)C3=CC=C(C=C3)OC [KN-93] + CS(=O)(=O)N1CCN(Cc2cc3nc(-c4cccc5[nH]ncc45)nc(N4CCOCC4)c3s2)CC1 [Pictilisib] (partner 1 µM)
Procedure, shortened: (§1)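 Five library-drug doses in √10 steps were combined with a fixed anchor-drug dose, or a single drug was given alone, by pin tool to lung cancer cell lines in 1536-well plates the day after seeding. Nuclei were stained and counted after 5 days. Relative viability is the nuclei count in treated wells over that in vehicle wells, taken as the median of duplicate plates.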

[3] = compound: CN(C/C=C/C1=CC=C(C=C1)Cl)CC2=CC=CC=C2N(CCO)S(=O)(=O)C3=CC=C(C=C3)OC [KN-93] + CC1(C)CCC(c2ccc(Cl)cc2)=C(CN2CCN(c3ccc(C(=O)NS(=O)(=O)c4ccc(N[C@H](CCN5CCOCC5)CSc5ccccc5)c(S(=O)(=O)C(F)(F)F)c4)cc3)CC2)C1 [Navitoclax] (partner 0.5 µM)
Procedure, shortened: as §1

[4] = compound: CN(C/C=C/C1=CC=C(C=C1)Cl)CC2=CC=CC=C2N(CCO)S(=O)(=O)C3=CC=C(C=C3)OC [KN-93] + N=C(N)NC(=N)NCCc1ccccc1 [Phenformin] (partner 250 µM)
Procedure, shortened: as §1

[5] = compound: CN(C/C=C/C1=CC=C(C=C1)Cl)CC2=CC=CC=C2N(CCO)S(=O)(=O)C3=CC=C(C=C3)OC [KN-93] + COc1cc2c(Oc3ccc(NC(=O)C4(C(=O)Nc5ccc(F)cc5)CC4)cc3F)ccnc2cc1OCCCN1CCOCC1 [Foretinib] (partner 0.25 µM)
Procedure, shortened: as §1

[6] = compound: CN(C/C=C/C1=CC=C(C=C1)Cl)CC2=CC=CC=C2N(CCO)S(=O)(=O)C3=CC=C(C=C3)OC [KN-93] + O=C(c1cc(Cc2n[nH]c(=O)c3ccccc23)ccc1F)N1CCN(C(=O)C2CC2)CC1 [Olaparib] (partner 8 µM)
Procedure, shortened: as §1

[7] = compound: CN(C/C=C/C1=CC=C(C=C1)Cl)CC2=CC=CC=C2N(CCO)S(=O)(=O)C3=CC=C(C=C3)OC [KN-93] + CS(=O)(=O)CCNCc1ccc(-c2ccc3ncnc(Nc4ccc(OCc5cccc(F)c5)c(Cl)c4)c3c2)o1 [Lapatinib] (partner 2 µM)
Procedure, shortened: as §1

[8] = compound: CN(C/C=C/C1=CC=C(C=C1)Cl)CC2=CC=CC=C2N(CCO)S(=O)(=O)C3=CC=C(C=C3)OC [KN-93] + C[C@@H](Oc1cc(-c2cnn(C3CCNCC3)c2)cnc1N)c1c(Cl)ccc(F)c1Cl [Crizotinib] (partner 1 µM)
Procedure, shortened: as §1

[9] = compound: CN(C/C=C/C1=CC=C(C=C1)Cl)CC2=CC=CC=C2N(CCO)S(=O)(=O)C3=CC=C(C=C3)OC [KN-93] + C[C@]1(O)C[C@@H](c2nc(-c3ccc4ccc(-c5ccccc5)nc4c3)c3c(N)nccn32)C1 [Linsitinib] (partner 1 µM)
Procedure, shortened: as §1

[10] = compound: CN(C/C=C/C1=CC=C(C=C1)Cl)CC2=CC=CC=C2N(CCO)S(=O)(=O)C3=CC=C(C=C3)OC [KN-93] + Nc1ncn([C@H]2C[C@H](O)[C@@H](CO)O2)c(=O)n1 [Decitabine] (partner 2 µM)
Procedure, shortened: as §1

[11] = compound: CN(C/C=C/C1=CC=C(C=C1)Cl)CC2=CC=CC=C2N(CCO)S(=O)(=O)C3=CC=C(C=C3)OC [KN-93] + Cc1nc(NC(=O)N2CCC[C@H]2C(N)=O)sc1-c1ccnc(C(C)(C)C(F)(F)F)c1 [Alpelisib] (partner 2 µM)
Procedure, shortened: as §1

With A549 the relative viability ([1]; 0.08 µM) was 0.79, the relative viability ([1]; 0.253 µM) was 1.06 and the relative viability ([1]; 2.53 µM) was 1.26. The relative viability ([1]; 8 µM) was 0.553, the relative viability ([2]; first compound 0.253 µM) was 0.609 and the relative viability ([2]; first compound 2.53 µM) was 1. For the same cell line, the relative viability ([2]; first compound 8 µM) was 0.225, the relative viability ([3]; first compound 0.08 µM) was 1.06 and the relative viability ([3]; first compound 0.253 µM) was 1.33. For the same cell line, the relative viability ([3]; first compound 2.53 µM) was 1.44, the relative viability ([3]; first compound 8 µM) was 0.513 and the relative viability ([4]; first compound 0.08 µM) was 0.183. It also gave a relative viability ([4]; first compound 0.253 µM) of 0.347, a relative viability ([4]; first compound 2.53 µM) of 0.922 and a relative viability ([4]; first compound 8 µM) of 0.132. For the same cell line, the relative viability ([5]; first compound 0.08 µM) was 0.911, the relative viability ([5]; first compound 0.253 µM) was 1.14 and the relative viability ([5]; first compound 2.53 µM) was 0.995. The relative viability ([5]; first compound 8 µM) was 0.585, the relative viability ([6]; first compound 0.08 µM) was 0.303 and the relative viability ([6]; first compound 0.253 µM) was 0.336. It also gave a relative viability ([6]; first compound 2.53 µM) of 0.65, a relative viability ([6]; first compound 8 µM) of 0.0828 and a relative viability ([7]; first compound 0.08 µM) of 0.863. It also gave a relative viability ([7]; first compound 0.253 µM) of 0.937, a relative viability ([7]; first compound 2.53 µM) of 1.01 and a relative viability ([7]; first compound 8 µM) of 0.385. The relative viability ([8]; first compound 0.08 µM) was 0.847, the relative viability ([8]; first compound 0.253 µM) was 1.05 and the relative viability ([8]; first compound 2.53 µM) was 0.944. For the same cell line, the relative viability ([8]; first compound 8 µM) was 0.28, the relative viability ([9]; first compound 0.08 µM) was 0.519 and the relative viability ([9]; first compound 0.253 µM) was 0.722. It also gave a relative viability ([9]; first compound 2.53 µM) of 0.746, a relative viability ([9]; first compound 8 µM) of 0.476 and a relative viability ([10]; first compound 0.253 µM) of 0.285. The relative viability ([10]; first compound 2.53 µM) was 0.313, the relative viability ([10]; first compound 8 µM) was 0.294 and the relative viability ([11]; first compound 0.08 µM) was 0.717. For the same cell line, the relative viability ([11]; first compound 0.253 µM) was 0.914, the relative viability ([11]; first compound 2.53 µM) was 0.849 and the relative viability ([11]; first compound 8 µM) was 0.546.
